Values of other authors as cited in US20240082160A1, “AMLODIPINE DRY SUSPENSION AND PREPARATION METHOD THEREFOR” (GUANGZHOU APICHOPE PHARMACEUTICAL CO., LTD., priority 2021, published 2024).

CCOC(=O)C1=C(COCCN)NC(C)=C(C(=O)OC)C1c1ccccc1Cl (stereo not shown) [amlodipine besylate]
solubility in water: slightly soluble in water
